In US11952582B2, “Herbicide-resistance gene and application thereof in plant breeding” (priority 2017, dated 2024):

What was measured:
[1] = system: WT (William 82), OE GmHPPD and OE PaHPPD-SDM T1 soybean plants; test: Soybean resistance to herbicide at whole plant level (spraying); type: in vivo; conditions: 20 μM sprayed twice
Protocol: 20 μM mesotrione (prepared with 0.1% Tween-20) and 0.1% Tween-20 were spray to 4 week-old transgenic T1 generation OE SDMHPPD, T1 generation OE GmHPPD and WT soybean which were grown in an artificial climate chamber (27° C., […], light/dark) for the first time. A second spray was applied after 1 week. Then the phenotype of the plants was observed very day, and the experimental result was recorded by taking photos 2 weeks after the treatment.

[2] = system: Arabidopsis WT, OE At, OE Pa, OE M3 seedlings; test: Herbicide resistance after Arabidopsis germination (seedlings transferred to herbicide medium); type: in vivo, Arabidopsis thaliana
Protocol: In order to further confirm the correctness of the results obtained in the germination test, an analysis experiment on herbicide resistance after Arabidopsis germination was conducted. Arabidopsis seedlings germinated by OE At, OE Pa, OE M3 and WT for 7 days were transferred to ½ MS medium containing different concentrations (0, 100, 250, 500, and 1000 nM) of mesotrione and grown for 1 week. 5 seedlings were treated per genotype with 3 biological replicates. After 1 week, the effect of the herbicide treatment (i.e., albino) was photographed.

[3] = system: WT (William 82) and OE PaHPPD-SDM soybean leaves; test: Soybean resistance to herbicide at leaf level (leaf coating); type: in vivo; conditions: leaf coating 0-30 μM, 2 weeks
Protocol: Transgenic T0 generation OE SDMHPPD and WT soybean (William 82) seedlings were planted in pots and placed in an artificial climate room (27° C., […], light/dark) for growth. After 4 weeks, 0, 1, 5, 10 and 30 μM of mesotrione (prepared with 0.1% Tween-20) and 0.1% Tween-20 were dipped with cotton swabs and evenly coated to the leaves of OE SDMHPPD (OE SDM #12 and OE SDM #13) T0 generation and WT seedlings having a height of 30-40 cm. Then, the phenotype was observed every week, and the experimental result was recorded by taking photos 2 weeks after the treatment.
To further test the resistance of transgenic soybeans to herbicides, 20 μM mesotrione (prepared with 0.1% Tween-20) and 0.1% Tween-20 were dipped with cotton swabs and evenly coated to the trifoliate leaves of 2 week-old WT, OE GmHPPD (OE GmHPPD #9) T1 generation seedlings and OE SDMHPPD (OE SDMHPPD #12) T1 generation. Then, the phenotype was observed every day, and the experimental result was recorded by taking photos 10 days after the treatment.

PaHPPD-SDM = PaHPPD-SDM (Pseudomonas aeruginosa, UniProt Q9I576, A156V/E349K/R282S); conditions: higher doses in the range 0-60 of herbicide
Text: Specifically, the presence of tyrosine aminotransferase in E. coli DH5a can catalyze the production of p-hydroxyphenylpyruvate (4-HPP) from tyrosine, which is used as a substrate for HPPD to produce homogentisic acid (HGA). After further oxidation and polymerization, a brown substance is produced. The addition of HPPD inhibitors will inhibit this reaction, thereby reducing the production of pigment. Therefore, the gradation of pigment can be used as an inhibition index of HPPD activity. […] Through heterologous expression of HPPD mutant genes from different species in E. coli DH5α, the resistance characteristics of E. coli DH5α-mutated gene to triketone herbicides were analyzed by detecting the absorption value of pigment at 405 nm (FIGS. 2-6, 8 and 9).
The PaHPPD mutants obtained by random mutation was cloned into E. coli cells together with wild-type PaHPPD and AtHPPD for comparation and screening.
The bacteria solution shaking cultured overnight at 37° C. was centrifuged, and 200 μL of supernatant was transferred to a sterile 96-well plate (microplate with high throughput characteristics) using a 200 μL pipette on an ultra-clean workbench. The pigment content was measured with a microtiter plate reader at a wavelength of 405 nm (OD405 nm), and the HPPD activity was evaluated according to the size of the OD value.
Then the obtained PaHPPD-SDM mutant was compared with its parental mutants (PaHPPD-M3, PaHPPD-DS18, and PaHPPD-DS73) to understand their ability of brown pigmentation in the presence of triketone herbicides at different doses (0-60 μM). The calculation formula of HPPD activity (%) is as follows: HPPD activity(%)=(Am/Ac)×100
Wherein Am refers to the average value of the absorbance at a specific herbicide dose, and Ac refers to the average value of the absorbance without the herbicide.

[4] = system: WT and T0 OE SDM rice seedlings; test: Total chlorophyll content in rice leaves; type: in vivo; conditions: 200 μM
Protocol: Referring to the method of Lichtenthaler HK (1987), chlorophyll was extracted from the leaves of wild-type and T0 generation OE SDM rice seedlings which were sprayed with 200 μM mesotrione (prepared with 0.1% Tween-20) and sprayed with control 0.1% Tween-20 after 2 weeks and its content was determined. All experiments were repeated biologically 3 times, and the average value was taken.

[5] = system: HPPD, VTE1 and VTE3 gene expression in Arabidopsis seedlings; test: qRT-PCR of HPPD and vitamin E biosynthesis genes in Arabidopsis after herbicide treatment; type: in vivo, Arabidopsis thaliana; conditions: 250 nM, 6 h
Protocol: 2 week-old T3 generation seedlings of WT, OE At, OE Pa and OE M3 were used as materials to set up a treatment group and a control group, respectively, wherein the treatment group was continuously cultured in ½ MS liquid medium containing 250 nM mesotrione for 6 h. The total RNA of related materials was extracted using Super Fast Plant RNA Extraction Kit (Beijing Huayueyang Biological Technology Co., Ltd., China). The concentration of RNA samples was measured using NanoDrop ND1000 (Thermo Scientific, USA). RNA samples with an absorbance ratio (at wavelengths of 260/280 nm and 260/230 nm) of approximately 2.0 were selected. The total RNA (1,000 ng) was then used for synthesis of cDNA for reverse transcription using a cDNA synthesis kit (One-step Removal of Transcript gDNA and cDNA Synthesis Super Kit, TransGen).
As for quantitative reverse transcription PCR analysis, 3.0 μL cDNA was used as a template in a 20 μL reaction system to detect the expression levels of HPPD as well as VTE1 and VTE3 genes which encode the key enzymes in the biosynthesis of vitamin E, and actin was used as an internal reference gene. Three technical repetitions were performed on the Bio-Rad CFX96 real-time system. REST software was used for statistical analysis.

[6] = system: Arabidopsis WT, OE At, OE Pa, OE M3 plants; test: Total chlorophyll and carotenoid content of Arabidopsis rosette leaves; type: in vivo, Arabidopsis thaliana
Protocol: The leaves (rosette leaves) of 2 week-old plants grown in ^1/2 MS medium containing different concentrations (0, 100, 250, 500 and 1000 nM) of mesotrione were collected, including leaves of OE At, OE Pa, OE M3 and WT. The total chlorophyll and carotenoid were extracted and the content thereof was detected by referring to the method of Lichtenthaler HK (1987). All experiments were repeated biologically 3 times, and the average value was taken.

Sequence of PaHPPD-SDM (Q9I576 whole entry A156V/R282S/E349K): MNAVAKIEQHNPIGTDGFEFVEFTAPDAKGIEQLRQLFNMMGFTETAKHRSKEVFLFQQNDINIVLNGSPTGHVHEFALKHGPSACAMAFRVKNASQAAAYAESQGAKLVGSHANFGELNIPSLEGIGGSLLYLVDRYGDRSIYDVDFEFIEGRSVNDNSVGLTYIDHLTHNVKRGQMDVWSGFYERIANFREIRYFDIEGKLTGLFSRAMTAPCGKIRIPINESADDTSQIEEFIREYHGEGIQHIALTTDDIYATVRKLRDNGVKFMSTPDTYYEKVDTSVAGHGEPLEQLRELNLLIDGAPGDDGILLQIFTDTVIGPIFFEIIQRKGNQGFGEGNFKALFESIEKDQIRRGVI

CS(=O)(=O)c1ccc(C(=O)C2C(=O)CCCC2=O)c([N+](=O)[O-])c1 [mesotrione]
phenotype after whole plant spraying ([1]; OE PaHPPD-SDM T1 line): grew normally
phenotype after whole plant spraying ([1]; wild-type William 82 and OE GmHPPD T1 line): albino symptom and growth retardation
cotyledon phenotype ([2]; OE At and OE Pa, 250 nM, 1 week): albino
concentration at which seedlings grew well (maximum tolerance concentration of seedlings) ([2]; OE M3, 7-day seedlings, 1 week on 1/2 MS medium): 250 nM
concentration at which cotyledons were albino ([2]; WT, 7-day seedlings, 1 week on 1/2 MS medium): 100 nM
concentration at which leaves did not show symptoms of albino (bleaching) and damage ([3]; OE PaHPPD-SDM soybean line): 30 µM
concentration at which leaves showed albino (bleaching) symptom ([3]; wild-type soybean William 82): 5 µM
resistance by HPPD activity (%) compared with WT, PaHPPD-M3, PaHPPD-DS18 and PaHPPD-DS73 (PaHPPD-SDM): improved the resistance
chlorophyll content of leaves after treatment ([4]; OE PaHPPD-SDM rice): did not decrease significantly
total chlorophyll content in leaves compared with treated OE SDM rice ([4]; WT rice, 2 weeks): greatly reduced
expression levels of HPPD, VTE1 and VTE3 compared with untreated seedlings ([5]; OE At, OE Pa and WT lines): inhibited to varying degrees
HPPD gene expression level compared with untreated seedlings ([5]; OE M3 line): basically not inhibited
gene expression levels of VTE1 and VTE3 compared with untreated seedlings ([5]; OE M3 line): up-regulated
total chlorophyll and carotenoid content of leaves with the increase of herbicide concentration ([6]; WT, OE At, OE Pa and OE M3, 0-1000 nM in 1/2 MS medium): decreased
total chlorophyll and carotenoid content of OE M3 compared with WT, OE At and OE Pa ([6]; same herbicide concentration): significantly higher
